Test results from US20060281071A1, “Stearoyl-CoA desaturase assay” (priority 2005, published 2006).
“And” between values parts separate entries of the source, which are not always exact repeats. Equal entries are not always repeated. Where two headings read alike, the source gives them in different places.

Assays:
mSCD1 = target: T1, mSCD1 (Mus musculus, UniProt P13516); assay: Conversion of saturated fatty acids to Δ9 monounsaturated fatty acids in ole1 yeast L8-14C expressing mSCD1 (GLC); format: cell-based; design: Cloning of the full-length human and mouse SCD cDNAs: The full coding region of human SCDs; expressed in transfected cells; host or cells: Saccharomyces cerevisiae L8-14C (ole1 disruptant), vector p426GPD; conditions: for % conversion of fatty acid to Δ9 monounsaturated fatty acid: endogenous fatty acid, L8-14C transformant, YPD lacking unsaturated fatty acids, 3 days; for conversion of exogenous saturated fatty acid to Δ9 monounsaturated fatty acid: exogenous fatty acid 0.2 mM, 1% tergitol NP-40, yeast cultured 2 days (FIG. 2)
T1 sequence (P13516 1-355): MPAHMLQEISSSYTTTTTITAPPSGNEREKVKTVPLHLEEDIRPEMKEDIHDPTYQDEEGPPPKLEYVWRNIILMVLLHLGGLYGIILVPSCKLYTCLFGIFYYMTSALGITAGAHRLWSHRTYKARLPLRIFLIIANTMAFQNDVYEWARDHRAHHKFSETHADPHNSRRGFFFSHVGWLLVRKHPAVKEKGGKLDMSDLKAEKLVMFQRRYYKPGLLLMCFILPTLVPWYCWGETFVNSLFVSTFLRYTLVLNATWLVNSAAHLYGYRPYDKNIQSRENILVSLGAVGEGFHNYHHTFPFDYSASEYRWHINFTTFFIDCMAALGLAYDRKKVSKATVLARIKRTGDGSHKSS

hSCD1 = target: T2, hSCD1 (Homo sapiens, UniProt O00767); assay: Conversion of saturated fatty acids to Δ9 monounsaturated fatty acids in ole1 yeast L8-14C expressing hSCD1 (GLC); format: cell-based; design: Cloning of the full-length human and mouse SCD cDNAs: The full coding region of human SCDs; expressed in transfected cells; host or cells: Saccharomyces cerevisiae L8-14C (ole1 disruptant), vector p426GPD; conditions: for % conversion of fatty acid to Δ9 monounsaturated fatty acid: endogenous fatty acid, L8-14C transformant, YPD lacking unsaturated fatty acids, 3 days; for conversion of exogenous saturated fatty acid to Δ9 monounsaturated fatty acid: exogenous fatty acid 0.2 mM, 1% tergitol NP-40, yeast cultured 2 days (FIG. 2)
T2 sequence (O00767 1-359): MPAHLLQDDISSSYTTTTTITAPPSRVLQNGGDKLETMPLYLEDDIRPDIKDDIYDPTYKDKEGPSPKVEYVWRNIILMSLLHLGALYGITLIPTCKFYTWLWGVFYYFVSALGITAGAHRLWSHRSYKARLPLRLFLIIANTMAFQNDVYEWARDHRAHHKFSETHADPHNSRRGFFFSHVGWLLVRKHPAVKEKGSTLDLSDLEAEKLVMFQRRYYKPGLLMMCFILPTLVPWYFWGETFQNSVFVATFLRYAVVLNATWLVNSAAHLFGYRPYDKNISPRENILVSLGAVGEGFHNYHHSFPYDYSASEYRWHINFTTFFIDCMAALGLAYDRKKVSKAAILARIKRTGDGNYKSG

mSCD2 = target: T3, mSCD2 (Mus musculus, UniProt P13011); assay: Conversion of saturated fatty acids to Δ9 monounsaturated fatty acids in ole1 yeast L8-14C expressing mSCD2 (GLC); format: cell-based; design: Cloning of the full-length human and mouse SCD cDNAs: The full coding region of human SCDs; expressed in transfected cells; host or cells: Saccharomyces cerevisiae L8-14C (ole1 disruptant), vector p426GPD; conditions: for % conversion of fatty acid to Δ9 monounsaturated fatty acid: endogenous fatty acid, L8-14C transformant, YPD lacking unsaturated fatty acids, 3 days; for conversion of exogenous saturated fatty acid to Δ9 monounsaturated fatty acid: exogenous fatty acid 0.2 mM, 1% tergitol NP-40, yeast cultured 2 days (FIG. 2)
T3 sequence (P13011 1-358): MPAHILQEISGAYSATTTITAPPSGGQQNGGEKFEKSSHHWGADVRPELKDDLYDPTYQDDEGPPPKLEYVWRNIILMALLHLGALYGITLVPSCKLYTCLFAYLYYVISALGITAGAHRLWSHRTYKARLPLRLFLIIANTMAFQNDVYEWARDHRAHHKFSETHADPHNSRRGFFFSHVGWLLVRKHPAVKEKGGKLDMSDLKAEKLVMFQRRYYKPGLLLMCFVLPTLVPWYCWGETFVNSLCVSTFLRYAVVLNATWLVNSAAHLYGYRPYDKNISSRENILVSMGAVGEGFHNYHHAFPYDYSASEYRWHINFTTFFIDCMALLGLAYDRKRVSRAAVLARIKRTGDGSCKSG

hSCD5 = target: T4, hSCD5 (Homo sapiens, UniProt Q86SK9); assay: Conversion of saturated fatty acids to Δ9 monounsaturated fatty acids in ole1 yeast L8-14C expressing hSCD5 (GLC); format: cell-based; design: Cloning of the full-length human and mouse SCD cDNAs: The full coding region of human SCDs; expressed in transfected cells; host or cells: Saccharomyces cerevisiae L8-14C (ole1 disruptant), vector p426GPD; conditions: for % conversion of fatty acid to Δ9 monounsaturated fatty acid: endogenous fatty acid, L8-14C transformant, YPD lacking unsaturated fatty acids, 3 days
T4 sequence (Q86SK9 1-330): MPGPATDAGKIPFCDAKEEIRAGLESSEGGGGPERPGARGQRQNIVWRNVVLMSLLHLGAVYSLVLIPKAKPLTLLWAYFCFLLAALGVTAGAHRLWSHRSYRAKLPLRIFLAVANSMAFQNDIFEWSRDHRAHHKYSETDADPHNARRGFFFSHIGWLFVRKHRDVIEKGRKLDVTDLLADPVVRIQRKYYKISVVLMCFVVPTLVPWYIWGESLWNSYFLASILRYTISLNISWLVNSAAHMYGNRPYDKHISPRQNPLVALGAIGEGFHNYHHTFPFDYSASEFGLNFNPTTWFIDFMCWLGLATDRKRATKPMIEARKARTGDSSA
Source text: (§1) Functional Analysis: The p426GPD constructs harboring either human or mouse SCDs were transformed into Saccharomyces cerevisiae strain L8-14C (provided by Professor Charles Martin, Division of Life Sciences, Department of Cell Biology and Neuroscience, Rutgers University, Nelson Laboratories), which contains a disruption of the yeast Δ9-desaturase gene ole1 and requires unsaturated fatty acids for growth (Stukey, J. E. et al. (1990) J Biol Chem 265, 20144-20149), by using a Lithium acetate standard methods (Elble, R. (1992) Biotechniques 13, 18-20). The transformed yeast cells were plated onto a synthetic dextrose medium containing 1% tergitol NP-40, 0.5 mM oleic acid, and 0.5 mM palmitoleic acid but lacking uracil. To test the genetic complementation of the mutant yeast strain, transformed yeast cells were plated onto YPD (Yeast Extract/Peptone/Dextrose) medium lacking unsaturated fatty acids. Plates were incubated at 30° C. for 3 days.
(§2) Fatty acid analysis: Yeast cells were grown in liquid YPD medium lacking unsaturated fatty acids for 3 days. Cells were pelleted and washed twice with water, followed by suspension in 0.5 ml of 2M NaOH in methanol. The mixture was then heated to 80° C. for 1 h and acidified with formic acid. Fatty acids were extracted according to Bligh & Dyer's method and trans-methylated with 1 ml of 14% BF3 in methanol (Sigma). The resulting fatty acid methyl esters were extracted with hexane and analyzed by gas-liquid chromatography (GLC) (Miyazaki, M. et al. (2001) J Biol Chem 276, 39455-39461; and Elble, R. (1992) Biotechniques 13, 18-20). The double bond positions of the monounsaturated fatty acid pyrrolidide derivatives were analyzed by tandem GC-MS as described in Miyazaki, M. et al. (2002) J Lipid Res 43, 2146-2154, incorporated by reference in its entirety. Exogenous saturated fatty acids (0.2 mM) were added into YPD in presence of 1% Tergitol NP-40 (Sigma).

mSCD4 = assay: Conversion of saturated fatty acids to Δ9 monounsaturated fatty acids in ole1 yeast L8-14C expressing mSCD4 (GLC); format: cell-based, mouse; conditions: for % conversion of fatty acid to Δ9 monounsaturated fatty acid: endogenous fatty acid, L8-14C transformant, YPD lacking unsaturated fatty acids, 3 days; for conversion of exogenous saturated fatty acid to Δ9 monounsaturated fatty acid: exogenous fatty acid 0.2 mM, 1% tergitol NP-40, yeast cultured 2 days (FIG. 2)
Source text: as §1
as §2, with “Cells” for “Fatty acid analysis: Yeast cells were grown in liquid YPD medium lacking unsaturated fatty acids for 3 days. Cells”

mSCD3 = target: T5, mSCD3 (Mus musculus, UniProt Q99PL7, V119A); assay: Conversion of saturated fatty acids to Δ9 monounsaturated fatty acids in ole1 yeast L8-14C expressing mSCD3 (GLC); format: cell-based; design: Cloning of the full-length human and mouse SCD cDNAs: The full coding region of human SCDs; expressed in transfected cells; host or cells: Saccharomyces cerevisiae L8-14C (ole1 disruptant), vector p426GPD
T5 sequence (Q99PL7 1-359 V119A): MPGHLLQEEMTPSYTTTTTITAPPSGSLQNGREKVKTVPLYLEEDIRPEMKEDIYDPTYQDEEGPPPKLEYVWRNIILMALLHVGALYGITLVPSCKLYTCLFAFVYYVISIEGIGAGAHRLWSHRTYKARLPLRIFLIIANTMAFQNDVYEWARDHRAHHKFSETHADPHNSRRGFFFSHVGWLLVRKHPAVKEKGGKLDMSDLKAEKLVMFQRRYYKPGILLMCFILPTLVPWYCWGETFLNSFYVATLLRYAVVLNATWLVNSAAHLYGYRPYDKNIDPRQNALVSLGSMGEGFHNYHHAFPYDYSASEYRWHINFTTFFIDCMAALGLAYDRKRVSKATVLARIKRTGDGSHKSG

[1] = yeast transformant, endogenous fatty acids
[2] = exogenous fatty acid 0.2 mM, 1% tergitol NP-40, yeast cultured 2 days (FIG. 2)

Structure (SMILES) | conversion of exogenous saturated fatty acid to Δ9 monounsaturated fatty acid (mSCD1) | conversion of exogenous saturated fatty acid to Δ9 monounsaturated fatty acid (hSCD1) | conversion of exogenous saturated fatty acid to Δ9 monounsaturated fatty acid (mSCD2) | conversion of exogenous saturated fatty acid to Δ9 monounsaturated fatty acid (hSCD5; [2]) | conversion of exogenous saturated fatty acid to Δ9 monounsaturated fatty acid (mSCD4) | also measured
CCCCCCCCCCCCCCCCCC(=O)O [18:0] |  |  |  |  |  | % conversion of fatty acid to Δ9 monounsaturated fatty acid (mSCD1): 85% and 84.8%; % conversion of fatty acid to Δ9 monounsaturated fatty acid (hSCD1): 75.0%; conversion towards 18:0 relative to 16:0 (hSCD1; [1]): 1.7 fold; % conversion of fatty acid to Δ9 monounsaturated fatty acid (mSCD2): 77% and 77.3%; % conversion of fatty acid to Δ9 monounsaturated fatty acid (hSCD5): 86.6%; conversion of 18:0 to 18:1Δ9 relative to that of 16:0 (hSCD5; [1]): more than 4 fold; % conversion of fatty acid to Δ9 monounsaturated fatty acid (mSCD4): 16.8%
CCCCCCCCCCCCCCCCCCCC(=O)O [C20:0, eicosanoic acid] | None of Δ9-desaturase was able to utilize | None of Δ9-desaturase was able to utilize | None of Δ9-desaturase was able to utilize | None of Δ9-desaturase was able to utilize | None of Δ9-desaturase was able to utilize | 
CCCCCCCCCCCCCC(=O)O [14:0, myristic acid] | 11% | 18% | 14% | less than 5% | 2.9% | 
CCCCCCCCCCCCCCCCC(=O)O [17:0, heptadecanoic acid] | 43% | 35% | 31% | 31% | 5.7% | 
CCCCCCCCCCCC(=O)O [12:0, lauric acid] |  |  |  |  |  | conversion of exogenous saturated fatty acid to Δ9 monounsaturated fatty acid (mSCD3): 14%; conversion of exogenous saturated fatty acid to Δ9 monounsaturated fatty acid (hSCD5): did not desaturate
CCCCCCCCCCCCC(=O)O [13:0, tridecanoic acid] | 13% | 9% | 14% | did not desaturate |  | 
CCCCCCCCCCCCCCCC(=O)O [16:0] |  |  |  |  |  | % conversion of fatty acid to Δ9 monounsaturated fatty acid (mSCD1): 36.4%; % conversion of fatty acid to Δ9 monounsaturated fatty acid (hSCD1): 43.8%; % conversion of fatty acid to Δ9 monounsaturated fatty acid (mSCD2): 51.4%; % conversion of fatty acid to Δ9 monounsaturated fatty acid (hSCD5): 19.9%; % conversion of fatty acid to Δ9 monounsaturated fatty acid (mSCD4): 9.7%
